Assay [1] relates to hippocampal area CA1 slices. Briefly: Field potential (FP) recordings in area CA1 of rat hippocampal slices (DHPG-LTD). The assay is classed as cell-based, Long Evans rats. The settings on record: for FP, % of pre-DHPG baseline (synaptic responses stabilized at a depressed level): after drug wash out. The method, then: All animals were used in accordance with procedures approved by the Brown University Institutional Animal Care and Use Committee. Hippocampal slices were prepared from postnatal day 21-30 (P21-30) Long Evans rats (Charles River, Cambridge, Mass.) and mGluR5 knockout mice (Lu et al. 1997) as described previously (Huber et al. 2000). For most experiments, CA3 was removed immediately after sectioning. Slices recovered for 1-2 h at room temperature (rats) or at 30° C. (mice) in artificial cerebrospinal fluid (ACSF) containing (in mM) 124 NaCl, 5 KCl, 1.25 NaH2PO4, 26 NaHCO3, 1 MgCl2, 2 CaCl2, and 10 dextrose, saturated with 95% O2-5% CO2. For recording, slices were placed in a submersion recording chamber and perfused with 30° C. ACSF at a rate of 2 ml/min.
Synaptically evoked field potentials (FPs) were recorded from area CA1 as described previously. Sharp microelectrode and whole cell voltage-clamp recordings were made using Axoclamp 2B and Axopatch 1D amplifiers (Axon Instruments), respectively. Sharp electrodes (80-120 M Ω) were filled with 3 M K-acetate and 10 mM KCl; patch pipettes (3-7 M Ω) were filled with (in mM) 134 K-gluconate, 6 KCl, 4 NaCl, 10 HEPES, 0.2 EGTA, 4 MgATP, 0.3 TrisGTP, and 14 phosphocreatine. The pH of the internal solution was adjusted to 7.25 with KOH, and the osmolarity was adjusted to 300 mOsm with H2O or sucrose. Only experiments in which there was less than a 15% change in series resistance were included in the analysis. Waveforms were filtered at 2 kHz and acquired and digitized at 10 kHz on a PC using Experimenter's Workbench (DataWave Systems, Boulder, Colo.).
Baseline responses were collected every 10-30 s using a stimulation intensity (10-30 μA; 0.2 ms) yielding 50-60% of the maximal response. Experiments in which there was a>5% drift in the response magnitude during the 20-min baseline period before DHPG or LFS were excluded from further analysis. All experiments with mGluR5 KO mice used wildtype littermates as controls and were performed blind to the genotype, later determined by Therion (Troy, N.Y.). LFS consisted of 900 pulses at 1 Hz. PP-LFS consisted of 900 pairs of stimuli (50-ms interstimulus interval) delivered at 1 Hz. In saturation experiments, stimulus duration was increased from 0.2 to 0.4 ms during PP-LFS.
The group data were analyzed as follows: 1) the initial slopes of the FPs and excitatory postsynaptic potentials (EPSPs), or the amplitude of the excitatory postsynaptic currents (EPSCs), for each experiment were expressed as percentages of the preconditioning or DHPG baseline average, 2) the time scale in each experiment was converted to time from the onset of conditioning or DHPG, and 3) the time-matched, normalized data were averaged across experiments and expressed in the text and figures as the means ±SE. Significant differences between groups were determined using an independent t-test or ANOVA performed on a 5-min average taken 1 h after LFS or DHPG application.
R,S-DHPG and D-2-amino-5-phosphonopentanoic acid (D-AP5) was purchased from Tocris (St. Louis, Mo.); all other chemicals were from Sigma Chemical (St Louis, Mo.). DHPG was prepared as a 100 times stock in H2O, aliquoted and stored at −20° C. Fresh stocks were made once a week. A 10 times stock of AP5 was prepared in ACSF and stored at 4° C. These stocks were diluted in ACSF to achieve their final concentrations. Picrotoxin was dissolved directly into ACSF immediately before use.

In assay [2] the test system is cultured hippocampal cells. Kind of assay: AMPAR-mediated mEPSC recordings. The assay is classed as cell-based, rat. The conditions noted are these: for mEPSC inter-event interval, % of baseline: 5 min; for mEPSC amplitude, % baseline: not statistically significant.
The test system of assay [3] is CA1 neurons in hippocampal slices. Briefly: Synaptically evoked NMDAR-mediated EPSCs in CA1 neurons of hippocampal slices. Format: cell-based, Long Evans rats. The settings on record: 5 min, 30 minutes after treatment, +40 mV. The method, then:
The loss of synaptic NR1 clusters clearly distinguishes the effect of DHPG from other treatments that selectively affect AMPARs^2,17-19.
Hippocampal slices were prepared from P21-30 Long Evans rats (Charles River, Cambridge, Mass.) as described previously^13,14. Slices recovered for 1-2 h at room temperature in artificial cerebrospinal fluid (ACSF) containing 124 mM NaCl, 5 mM KCl, 1.25 mM NaH2PO4, 26 mM NaHCO3, 1 mM MgCl2, 2 mM CaCl2, 10 mM dextrose, saturated with 95% O2, 5% CO2. For recording, slices were placed in a submersion recording chamber and perfused with 30° C. ACSF at a rate of 2 ml/min.
Synaptically evoked-NMDAR-mediated EPSCs were recorded from area CA1 as described previously for visual cortex^20. NMDA-evoked currents were examined by picospritzing 1 mM NMDA (made in ACSF), applied for 3.5-12.5 ms, near the proximal portion of the primary apical dendrite. NMDA-evoked currents were elicited once every two minutes. Stimulation intensity or picospritz pulse duration/pressure were adjusted to evoke an inward current with amplitude of 50 pA or greater.

Assay [4] has the same test system. Briefly: NMDA-evoked currents in CA1 neurons of hippocampal slices. Format: cell-based, Long Evans rats. The conditions noted are these: DHPG 100 μM, 5 min; 50-60 min after treatment. The method, then: As an additional test for an mGluR-induced loss of NMDAR function, we examined the effects of 100 μM DHPG (5 min) on currents evoked by NMDA applied near the proximal portion of the primary apical dendrite (FIG. 9B). Significant depression of NMDAR currents occurred (percent baseline at 50-60 min after DHPG treatment, DHPG, 61.1±12.0, n=7; control, 97.3±9.4; n=7; p<0.05); however, the time course of this change was much slower than that observed for synaptically evoked EPSCs. […] The early LTD of EPSCs could be accounted for by a presynaptic mechanism or by the rapid dispersal of synaptic NMDARs (without immediate internalization). […] Regardless of the early consequences, however, the parallel depression of NMDAR EPSCs and NMDA-evoked responses 60 minutes after DHPG treatment is consistent with an eventual reduction in surface NMDAR expression during mGluR-LTD.
Hippocampal slices were prepared from P21-30 Long Evans rats (Charles River, Cambridge, Mass.) as described previously^13,14. Slices recovered for 1-2 h at room temperature in artificial cerebrospinal fluid (ACSF) containing 124 mM NaCl, 5 mM KCl, 1.25 mM NaH2PO4, 26 mM NaHCO3, 1 mM MgCl2, 2 mM CaCl2, 10 mM dextrose, saturated with 95% O2, 5% CO2. […]
Synaptically evoked-NMDAR-mediated EPSCs were recorded from area CA1 as described previously for visual cortex^20. […]

Regarding `NC(C(=O)O)c1cc(O)cc(O)c1` (racemic) [DHPG, (RS)-3,5-dihydroxyphenylglycine], the “FP slope, % of pre-DHPG baseline after saturation of mGluR-dependent LTD” value in assay [1] (DHPG 50 μM applied after PP-LFS in D-AP5 50 μM) was determined as 100±5%. Also, the “FP, % of pre-DHPG baseline (synaptic responses stabilized at a depressed level)” value was 69±5% in assay [1] (DHPG 50 μM, 5 min) and 48±1% in assay [1] (DHPG 100 μM, 5 min). For the same compound, the “DHPG-LTD, two-pathway experiment, unstimulated input” value in assay [1] (DHPG 50 μM, 5 min, input not stimulated during DHPG) is 68±5%. In assay [1] (DHPG 50 μM, 5 min, input stimulated during DHPG), the “DHPG-LTD, two-pathway experiment, stimulated input” value was found to be 62±4%. Besides, the “magnitude of DHPG-LTD, interleaved control slices without AP5” value in assay [1] (DHPG 50 μM, 5 min, no AP5) stood at 85±3%. Besides, in assay [1] (DHPG applied after repeated episodes of LFS), the “FP slope, % of pre-DHPG baseline after saturation of NMDAR-dependent LTD” value is listed as 81±5%. The “mEPSC inter-event interval, % of baseline” value is reported as 315% in assay [2] (15 min after DHPG 50 μM) and 319% in assay [2] (60 minutes after DHPG 50 μM). Further, the “mEPSC amplitude, % baseline” value amounted to 94.2% in assay [2] (15 minutes following DHPG) and 92.2% in assay [2] (60 minutes following DHPG). Besides, the “NMDAR-EPSC amplitude as percent of baseline” value in assay [3] (DHPG 50 μM) was 70.7±2.9% of baseline; in assay [3] (DHPG 100 μM) it was 57.7±1.0% of baseline. Moreover, in assay [4], the “NMDA-evoked currents, percent baseline” value amounted to 61.1±12.0 percent baseline.

The values are drawn from patent publication US7648993B2, “Methods of treating disorders with Group I mGluR antagonists” (Brown University, priority 2001, dated 2010).
